Reference: patent publication US20080051379A1, “Compositions and Methods for the Treatment of Peripheral B-Cell Neoplasms” (Trustees of Boston University, priority 2004, published 2008)

What was measured:
Format in all cases: cell-based, human
[1] = tested on: GRE luciferase constructs transiently transfected into B-CLL cells; assay: GRE luciferase transactivation in B-CLL cells
Procedure: (§1) B-CLL cells (FIG. 3A) or CCRF-CEM cells (FIG. 3B) were transiently transfected with a luciferase construct in which expression is regulated by GRE elements, followed by culture in 10 μM rolipram (R), 40 μM forskolin (Fsk), 1 μM hydrocortisone (HC), 1 mM Rp-8Br-cAMPS (Rp-8Br) or combinations of these agents. 12 hours after addition of the drugs, the relative luminescence of the samples was determined. The data shown are the mean of 8 experiments for B-CLL and two experiments for CCRF-CEM cells. The single asterisk denote a significant difference by paired student's t test between HC alone and either R/HC (FIG. 3A) or F/HC (FIG. 3B) (p<0.02). The double asterisk denotes a significant difference between Rp-8Br-cAMPS/HC and HC alone (p<0.02).
An MMTV GRE luciferase construct, originally created by Dr. R. Evans, was a gift from Dr. Remco Spanjaard (Dept. of Otolaryngology, Boston Medical Center)^29. 100 million B CLL cells in 200 μl of PBS were added to 500 μl of Nucleofector Solution D containing 30 μg of endotoxin-free (Qiagen) MMTV luciferase constructs. 100 μl was used per transfection using a Nucleofector electroporation instrument (Amaxa Biosystems, Koeln, Germany) using program U16. […] Up to six such aliquots of transfected cells were diluted in media and pooled, prior to distribution of 8 million cells/well in 48 well plates. Two hours after transfection, drugs, cytokines or vehicle alone were added to the transfected cells. 14 hours after transfection, samples were processed using a luciferase assay kit (Promega). Triplicate samples were analyzed with an MGM Instruments Optocomp I luminometer (Hamden, Conn.). Analysis of cell viability (trypan blue exclusion) and total protein (Pierce) verified that equivalent numbers of viable B-CLL cells were analyzed. 100 million CCRF-CEM cells were similarly transfected, cultured and analyzed except that Nucleofector program O17 was utilized. […] Data were analyzed using a two-sided paired t test for means.

[2] = tested on: GRE luciferase construct in CCRF-CEM cells; assay: GRE luciferase transactivation in CCRF-CEM cells; conditions: 40 μM forskolin or 10 μM rolipram
Procedure: as §1
An MMTV GRE luciferase construct, originally created by Dr. R. Evans, was a gift from Dr. Remco Spanjaard (Dept. of Otolaryngology, Boston Medical Center)^29. […] Triplicate samples were analyzed with an MGM Instruments Optocomp I luminometer (Hamden, Conn.). Analysis of cell viability (trypan blue exclusion) and total protein (Pierce) verified that equivalent numbers of viable B-CLL cells were analyzed. 100 million CCRF-CEM cells were similarly transfected, cultured and analyzed except that Nucleofector program O17 was utilized. […] Data were analyzed using a two-sided paired t test for means.

[3] = tested on: glucocorticoid-sensitive subclone (CEM-S2); assay: MTS cell survival assay, CEM-S2; conditions: dexamethasone-sensitive CCRF-CEM cells; 10 μM, 72 hours
Procedure: (§2) In FIG. 5A, the polyclonal parental cell line (CCRF-CEM), the single cell-derived glucocorticoid-resistant subclone (CEM-R8) and the single cell-derived glucocorticoid-sensitive subclone (CEM-S2) were cultured for 72 hours in the presence of vehicle (ETOH) or dexamethasone at the concentrations indicated and cell viability was assessed by the MTS assay as described in Methods. In FIG. 5B, the glucocorticoid-resistant subclone (CEM-R8) and the glucocorticoid-sensitive subclone (CEM-S2) were cultured for 72 hours in the presence of hydrocortisone (HC) (10 μM HC for the CEM-R8 cells and 1 μM HC for the CEM-S2 cells), 10 μM forskolin (Fsk), 10 μM rolipram (Rol), or combinations of these agents as indicated, and cell viability was assessed by the MTS assay as described in Methods. FIG. 5C: The glucocorticoid-resistant subclone (CEM-R8) and the glucocorticoid-sensitive subclone (CEM-S2) were cultured for 72 hours in the presence of varying amounts of dibutyryl cAMP (db-cAMP) in the absence (−HC) or presence (+HC) of 1 μM hydrocortisone as indicated, and cell viability was assessed by the MTS assay as described in Methods. The data shown were normalized to the vehicle control. Results represent the mean±SD of triplicate determinations.
CCRF-CEM cells were obtained from ATCC^27. Leukemic or normal mononuclear cells were obtained by centrifugation over Histopaque 1077 (Sigma Chemical Company, St. Louis, Mo.). For purification of T cells, whole mononuclear cells from normal subjects were incubated with magnetic beads coated with appropriate antibodies, then positively purified using a magnet (Miltenyi). […]
Hoechst 33342 and DiOC6(3) apoptosis assays were performed as previously described^22,28. […] The absorbance (O.D.) of the formazan product was determined at 492 nm using a plate reader (Titertek Multiscan Plus, Labsystems). Percent cell viability was calculated as follows: (O.D. control sample−O.D. blank)/(O.D. test sample−O.D. blank)×100. […]

[4] = tested on: glucocorticoid-resistant subclone (CEM-R8); assay: MTS cell survival assay, CEM-R8; conditions: dexamethasone-resistant CCRF-CEM cells; 10 μM, 72 hours
Procedure: as §2, with “The data shown were normalized to the vehicle control. Results represent the mean±SD of triplicate determinations.” left out
Hoechst 33342 and DiOC6(3) apoptosis assays were performed as previously described^22,28. […] The absorbance (O.D.) of the formazan product was determined at 492 nm using a plate reader (Titertek Multiscan Plus, Labsystems). […]

[5] = tested on: PDE4A, PDE4B or PDE4D expression in B-CLL cells; assay: Western analysis of PDE4 isoforms, B-CLL cells; conditions: 10 μM rolipram, 18 hours
Procedure: B-CLL and CCRF-CEM cells were incubated for 18 hours with media alone, 10 μM rolipram, 10 μM forskolin (Fsk), 1 μM hydrocortisone (HC), or the same concentration of rolipram combined with 1 μM hydrocortisone (Roli+HC) or 10 μM forskolin (Roli+Fsk). Lysates of the cells were then assessed for expression of PDE4A, PDE4B or PDE4D by Western analysis. Equal loading of samples was verified by immunoblotting for tubulin.
30 million B-CLL cells or 10 million CCRF-CEM cells were incubated for 18 hours in media alone or with the addition of drugs as indicated in the text. Western analysis was then carried out as previously described^30. The PDE4A (66C12H), PDE4B (96G7A) and PDE4D (61D10E) antibodies were kind gifts from Dr. Sharon Wolda (ICOS, Bothell, Wash.) and have been previously described^30 31.

With `COc1ccc(C2CNC(=O)C2)cc1OC1CCCC1` (stereo not shown) [rolipram, 4-(3-cyclopentyloxy-4-methoxyphenyl)-2-pyrrolidone] the “augmentation of hydrocortisone-induced transactivation (average)” value ([1]; 10 μM rolipram + 1 μM hydrocortisone, 5 patients, p<0.02) was 33%, the “augmentation of GRE transactivation by rolipram itself” value ([1]; 10 μM rolipram alone, 7/8 experiments, not statistically significant (p<0.23)) was 10% and the “GRE transactivation as a single agent” value [2] was “none”. For the same compound, the “effect on cell viability as single agent” value [3] was “no discernable effect”, the “effect on cell viability as single agent” value [4] was “no discernable effect” and the “expression of 63 and 68 kDa form of PDE4D” value [5] was “either no or very low level rolipram-induced expression”. For the same compound, the “expression of 63 and 68 kDa forms of PDE4B” value [5] was “rolipram-inducible expression”.
